Measured values reported in patent publication US20250171419A1, “NOVEL NICOTINAMIDE PHOSPHORIBOSYLTRANSFERASE INHIBITORS AND USES THEREOF” (Heidelberg Pharma Research GmbH, priority 2023, published 2025).
Counter-ions that a name gives are not always drawn. One block for each compound: values may come before it.

Legend:
[1] = Acid hydration stability (TFA, 37° C); assay type: physicochemical; settings: for tendency of cyanoguanidine group to hydration and degradation: pH values below 2, formation of guanylurea intermediates
Excerpt: Since the lysosomal pH is acidic and contains numerous hydrolases, NAMPT inhibitors bearing cyanoguanidines may therefore be degraded in the lysosome. […] The product was confirmed by mass spectrometry and NMR analysis. The inhibitor C42a was designed as an alternative to cyanoguanidine compounds containing urea as non-hydratable group.

[2] = tested on: human breast and lung cancer cell line-derived in vivo models; settings: cited from earlier work
solid tumors = settings: cited from earlier work
L540 CD30+ cell line = experiment: Cytotoxicity in L540 CD30+ cell line, CellTiter-Glo 2.0 readout after 96 h; assay type: cell-based; settings: FIG. 10 C
[3] = assay type: in vitro ADME, human
Method: The test compound was incubated at a concentration of 17.7 μM in a mixture of human liver lysosomal extract (tebu-bio, Seikisui Xenotech, Ref: H0610.L) and 1× catabolism buffer (tebu-bio, Seikisui Xenotech, Ref: K5200) for […] at 37° C. Samples were taken at 0, 2, 4, 24, 48, 72, 120, and 168 hours. Control samples without lysosomal extract were also set up under the same conditions as the test sample. All measurements and samples were taken in duplicate.
To measure the reaction, the compound was quenched by adding 380 μL of internal standard buffer (30 ng/mL of internal standard in ACN) to 20 μL of the sample. An amanitin-stable isotope-labelled analogue was used as the internal standard.
22 μL of the quenched sample was analysed using UPLC-MS-MS QTrap 5500 (Column: Waters ACQUITY UPLC BEH Amide, […], 2.1×100 mm, product code: 186004801). This assay was related to compound 113. Compound 113 was expected to be the main degradation compound after lysosomal enzymatic digestion and was used as a reference for the detection of catabolites after digestion in the HPLC-MS analysis.
The ion fragments detection method was multiple reaction monitoring (MRM). In this method, the mass is measured by a tandem mass spectrometer where the initial molecular ion is selected as initial mass. […]

[4] = tested on: murine renal cell carcinoma model RENCA; settings: cited from earlier work

Structure (SMILES): Nc1cccc(C(=O)N2CCC(O)(CCCCNC(=O)N3Cc4ccccc4C3)CC2)c1 [C42a, N-(4-(1-(3-aminobenzoyl)-4-hydroxypiperidin-4-yl)butyl)isoindoline-2-carboxamide TFA salt]
- time stable under the conditions that triggered the hydration of 36 ([1]; identical conditions as those that triggered the hydration of 36): more than 2 weeks
- hydration at pH values below 2 ([1]; pH values below 2 at 37° C for more than 2 weeks): no hydration

Structure (SMILES): N#CNC(=Nc1ccncc1)NCCCCCCOc1ccc(Cl)cc1 [CHS-828, N-[6-(4-chlorophenoxy)hexyl]-N′-cyano-N″-4-pyridinyl-guanidine]
- cytotoxic effects in vitro and in vivo [2]: highly cytotoxic effects
- observed responses in the clinical trials (solid tumors): stable disease

Structure (SMILES): NC(=O)/N=C(\NCCCCC1CCN(C(=O)c2cccc(N)c2)CC1)Nc1cccnc1 [compound 113, (E)-1-(((4-(1-(3-aminobenzoyl)piperidin-4-yl)butyl)amino)(pyridin-3-ylamino)methylene)urea]
- toxicity in L540 cells compared to inhibitor 36 (L540 CD30+ cell line): significantly reduced toxicity

Structure (SMILES): O=C(/C=C/c1cccnc1)NCCCCC1CCN(C(=O)c2ccccc2)CC1 [Daporinad, (E)-N-[4-(1-benzoylpiperidin-4-yl)butyl]-3-(pyrldine-3-yl)-acrylamide]
- in vivo efficacy [4]: In vivo efficacy of daporinad was shown

More lines, main results first:

- tendency of cyanoguanidine group to hydration and degradation [1]: tend towards hydration and degradation
Structure (SMILES): N#C/N=C(\NCCCCC1(O)CCN(C(=O)c2cccc(N)c2)CC1)Nc1cccnc1 [C22a, (E)-1-(4-(1-(3-aminobenzoyl)-4-hydroxypiperidin-4-yl)butyl)-2-cyano-3-(pyridin-3-yl)guanidine]

- acid hydration reaction involving TFA, pH above 2 ([1]; pH values above 2, after 48 hours at 37° C): the reaction did not occur
- tendency of cyanoguanidine group to hydration and degradation [1]: tend towards hydration and degradation
- degradation in the absence of lysosomal enzymes [3]: no degradation is observed
- degradation versus generation of the hydrated product 113 [3]: inversely correlates
Structure (SMILES): N#C/N=C(\NCCCCC1CCN(C(=O)c2cccc(N)c2)CC1)Nc1cccnc1 [compound 36, (E)-1-(4-(1-(3-aminobenzoyl)piperidin-4-yl)butyl)-2-cyano-3-(pyridin-3-yl)guanidine]
- hydration of the cyanoguanidine moiety under acid pH ([1]; acid pH): undergoes hydration of the cyanoguanidine moiety to guanylurea
- acid hydration reaction involving TFA, pH below 2 ([1]; pH values below 2, within 24 hours at 37° C): guanylurea 113 was obtained in excellent yield
